Results published in patent US10603345B2, “Pharmaceutical composition for treating respiratory disease” (Kunming Institute of Botany, The Chinese Academy of Sciences, priority 2015, dated 2020).

Columns and labels:
Format in all cases: in vivo
[1] = system: inflammatory cell in LPS-induced rat; assay: Effect on inflammatory cell and classification in BALF of LPS-induced rat; details: ig 7 d, dose/kg: DXM 1.5 mg, Test group 1 30 mg, 2 15 mg, 3 7.5 mg, x ± S
Description: (§1) Animal source: 190˜220 g male SD rat, from laboratory animal department of Kunming Medical University, License No. SCXK (Dian) 2011-0004.
(§2) Method and route: lipopolysaccharide (LPS) was used to induce a rat airway inflammation model; after intragastrical administration for 7 d at a dose of 10 mL/kg, the animal was sacrificed at the eighth day.
(§3) Sample preparation: all the samples were prepared by using 0.5% carboxymethylcellulose sodium (0.5% CMC-Na).
Group and dose: in Test group 1 and Test group 2, the ratio of picrinine, vallesamine, scholaricine and 19-epischolaricine by weight was 43:16:30:8 and 20:38:30:7, respectively, and the other groups and doses thereof were as described in Example 9.
Test index: Total number of white blood cells (WBCs) and inflammatory cell classification in bronchoalveolar lavage fluid (BALF) were used as indexes.

IL-8 in LPS-induced rat = assay: Effect on IL-8 in LPS-induced rat; details: ig 7 d, dose/kg: DXM 1.5 mg, Test group 1 30 mg, 2 15 mg, 3 7.5 mg, x ± S
Description: as §1, §2, §3
Group and dose: in Test group 1 and Test group 2, the ratio of picrinine, vallesamine, scholaricine and 19-epischolaricine by weight was 48:10:30:9 and 12:14:15:6, respectively, and the other groups and doses thereof were as described in Example 9.
Test index: IL-8 in bronchoalveolar lavage fluid (BALF), serum, and homogenate was used as index.

TNF-α in LPS-induced rat = assay: Effect on TNF-α in LPS-induced rat; details: ig 7 d, dose/kg: DXM 1.5 mg, Test group 1 30 mg, 2 15 mg, 3 7.5 mg, x ± S
Description: as §1, §2, §3
Group and dose: in Test group 1 and Test group 2, the ratio of picrinine, vallesamine, scholaricine and 19-epischolaricine by weight was, 45:36:7:10 and 10:18:9:2, respectively, and the other groups and doses thereof were as described in Example 9.
Test index: TNF-α in bronchoalveolar lavage fluid (BALF), serum, and homogenate was used as index.

NO in LPS-induced rat = assay: Effect on NO in LPS-induced rat; details: ig 7 d, dose/kg: DXM 1.5 mg, Test group 1 30 mg, 2 15 mg, 3 7.5 mg, x ± S
Description: as §1, §2, §3
Group and dose: in Test group 1 and Test group 2, the ratio of picrinine, vallesamine, scholaricine and 19-epischolaricine by weight was 40:30:28:2 and 15:18:26:7, respectively, and the other groups and doses thereof were as described in Example 9.
Test index: NO in bronchoalveolar lavage fluid (BALF), serum, and homogenate was used as index.

SOD in LPS-induced rat = assay: Effect on SOD in LPS-induced rat; details: ig 7 d, dose/kg: DXM 1.5 mg, Test group 1 30 mg, 2 15 mg, 3 7.5 mg, x ± S
Description: as §1, §2, §3
Group and dose: in Test group 1 and Test group 2, the ratio of picrinine, vallesamine, scholaricine and 19-epischolaricine by weight was 8:45:29:9 and 20:14:12:7, respectively, and the other groups and doses thereof were as described in Example 9.
Test index: SOD in bronchoalveolar lavage fluid (BALF), serum, and homogenate was used as index.

MDA in LPS-induced rat = assay: Effect on MDA in LPS-induced rat; details: ig 7 d, dose/kg: DXM 1.5 mg, Test group 1 30 mg, 2 15 mg, 3 7.5 mg, x ± S
Description: Group and dose: in Test group 1 and Test group 2, the ratio of picrinine, vallesamine, scholaricine and 19-epischolaricine by weight was 45:6:28:3 and 17:14:9:4, respectively, and the other groups and doses thereof were as described in Example 9.
Test index: MDA in bronchoalveolar lavage fluid (BALF), serum, and homogenate was used as index.

ALB in LPS-induced rat = assay: Effect on ALB in LPS-induced rat; details: ig 7 d, dose/kg: DXM 1.5 mg, Test group 1 30 mg, 2 15 mg, 3 7.5 mg
Description: as §1, §2, §3
Group and dose: in Test group 1 and Test group 2, the ratio of picrinine, vallesamine, scholaricine and 19-epischolaricine by weight was 36:38:7:1 and 16:15:14:5, respectively, and the other groups and doses thereof were as described in Example 9.
Test index: ALB in bronchoalveolar lavage fluid (BALF), and serum was used as index.

AKP in LPS-induced rat = assay: Effect on AKP in LPS-induced rat; details: ig 7 d, dose/kg: DXM 1.5 mg, Test group 1 30 mg, 2 15 mg, 3 7.5 mg
Description: as §1, §2, §3
Group and dose: in Test group 1 and Test group 2, the ratio of picrinine, vallesamine, scholaricine and 19-epischolaricine by weight was 8:25:30:9 and 12:10:9:2, respectively, and the other groups and doses thereof were as described in Example 9.
Test index: AKP in bronchoalveolar lavage fluid (BALF), and serum was used as index.

LDH in LPS-induced rat = assay: Effect on LDH in LPS-induced rat; details: ig 7 d, dose/kg: DXM 1.5 mg, Test group 1 30 mg, 2 15 mg, 3 7.5 mg
Description: as §1, §2, §3
Group and dose: in Test group 1 and Test group 2, the ratio of picrinine, vallesamine, scholaricine and 19-epischolaricine by weight was 10:28:15:8 and 10:7:7:2, respectively, and the other groups and doses thereof were as described in Example 9.
Test index: LDH in bronchoalveolar lavage fluid (BALF), and serum was used as index.

C[C@@H]1C[C@H]2[C@@H]3CCC4=CC(=O)C=C[C@]4(C)[C@@]3(F)[C@@H](O)C[C@]2(C)[C@@]1(O)C(=O)CO [DXM, dexamethasone]
BALF cell classification AM (alveolar macrophage) [1]: 52.5 ± 7.0 % | BALF cell classification L (lymphocyte) [1]: 9.3 ± 5.0^ % | BALF cell classification M (monocyte) [1]: 28.9 ± 6.20 % | BALF cell classification N (neutrophil) [1]: 8.2 ± 2.9 % | WBC [1]: 3.35 ± 1.89 × 10^5/ml | IL-8 BALF (IL-8 in LPS-induced rat; BALF): 24.62 ± 12.42 pg/mL | IL-8 lung tissue (IL-8 in LPS-induced rat; lung tissue homogenate): 60.62 ± 20.11 pg/mL | IL-8 serum (IL-8 in LPS-induced rat; serum): 29.62 ± 12.13 pg/mL | TNF-a BALF (TNF-α in LPS-induced rat; BALF): 11.28 ± 4.51 pg/mL | TNF-a lung tissue (TNF-α in LPS-induced rat; lung tissue homogenate): 152.11 ± 37.64 pg/mL | TNF-a Serum (TNF-α in LPS-induced rat; serum): 5.11 ± 1.67 pg/mL | NO BALF (NO in LPS-induced rat; BALF): 13.52 ± 4.17 µmol/L | NO Lung tissue (NO in LPS-induced rat; lung tissue homogenate): 18.35 ± 5.30 µmol/L | NO Serum (NO in LPS-induced rat; serum): 27.20 ± 7.67 µmol/L | SOD BALF (SOD in LPS-induced rat; BALF): 63.35 ± 13.45 U/mL | SOD Lung tissue (SOD in LPS-induced rat; lung tissue homogenate): 92.25 ± 8.88 U/mL | SOD Serum (SOD in LPS-induced rat; serum): 307.6 ± 97.7 U/mL | MDA lung tissue (MDA in LPS-induced rat; lung tissue homogenate): 1.61 ± 0.71 nmol/mL | MDA Serum (MDA in LPS-induced rat; serum): 4.21 ± 1.49 nmol/mL | ALB BALF (ALB in LPS-induced rat; BALF): 0.18 ± 0.07 g/L | ALB Serum (ALB in LPS-induced rat; serum): 19.4 ± 1.4 g/L | AKP BALF (AKP in LPS-induced rat; BALF): 29.0 ± 5.9 U/L | AKP Serum (AKP in LPS-induced rat; serum): 116.1 ± 36.0 U/L | LDH BALF (LDH in LPS-induced rat; BALF): 96.7 ± 25.6 U/L | LDH Serum (LDH in LPS-induced rat; serum): 386.5 ± 92.7 U/L
